# Data reported in PMC12155096 (International Journal of Molecular Sciences, 2025).
# Key:
# [1] = molecular target: T1, human CYP1A2 (Homo sapiens, UniProt P05177)
# T1 sequence (P05177 1-516): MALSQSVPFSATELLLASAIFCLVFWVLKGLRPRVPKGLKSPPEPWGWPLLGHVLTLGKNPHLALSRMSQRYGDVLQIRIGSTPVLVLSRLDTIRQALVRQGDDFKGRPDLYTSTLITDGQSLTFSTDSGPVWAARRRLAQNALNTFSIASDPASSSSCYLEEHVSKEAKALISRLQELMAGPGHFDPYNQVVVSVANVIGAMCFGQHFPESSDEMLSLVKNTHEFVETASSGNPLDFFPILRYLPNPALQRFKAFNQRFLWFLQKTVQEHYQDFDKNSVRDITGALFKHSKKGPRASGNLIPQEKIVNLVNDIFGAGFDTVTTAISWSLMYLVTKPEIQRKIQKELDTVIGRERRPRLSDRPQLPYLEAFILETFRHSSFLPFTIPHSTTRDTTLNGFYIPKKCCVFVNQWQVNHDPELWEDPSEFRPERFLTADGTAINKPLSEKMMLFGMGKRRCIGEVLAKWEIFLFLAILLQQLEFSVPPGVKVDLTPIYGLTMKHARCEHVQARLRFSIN
# [2] = molecular target: human CYP2C9 (Homo sapiens, UniProt P11712)
# Chain of human CYP2C9 (P11712 whole entry): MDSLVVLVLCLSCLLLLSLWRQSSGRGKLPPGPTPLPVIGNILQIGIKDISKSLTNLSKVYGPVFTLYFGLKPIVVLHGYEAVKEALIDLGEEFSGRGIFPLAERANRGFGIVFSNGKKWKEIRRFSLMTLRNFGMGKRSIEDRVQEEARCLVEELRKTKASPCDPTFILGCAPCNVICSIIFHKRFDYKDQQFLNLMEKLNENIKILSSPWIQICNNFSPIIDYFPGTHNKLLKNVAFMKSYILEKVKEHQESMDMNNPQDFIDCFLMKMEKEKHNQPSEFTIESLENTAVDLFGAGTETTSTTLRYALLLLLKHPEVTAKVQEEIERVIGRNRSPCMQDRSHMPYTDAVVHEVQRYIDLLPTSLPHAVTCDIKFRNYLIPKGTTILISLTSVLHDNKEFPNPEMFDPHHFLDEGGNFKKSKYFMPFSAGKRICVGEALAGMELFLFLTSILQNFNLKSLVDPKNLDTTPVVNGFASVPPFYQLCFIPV
# [3] = molecular target: human CYP2C19 (Homo sapiens, UniProt P33261)
# Chain of human CYP2C19 (P33261 whole entry): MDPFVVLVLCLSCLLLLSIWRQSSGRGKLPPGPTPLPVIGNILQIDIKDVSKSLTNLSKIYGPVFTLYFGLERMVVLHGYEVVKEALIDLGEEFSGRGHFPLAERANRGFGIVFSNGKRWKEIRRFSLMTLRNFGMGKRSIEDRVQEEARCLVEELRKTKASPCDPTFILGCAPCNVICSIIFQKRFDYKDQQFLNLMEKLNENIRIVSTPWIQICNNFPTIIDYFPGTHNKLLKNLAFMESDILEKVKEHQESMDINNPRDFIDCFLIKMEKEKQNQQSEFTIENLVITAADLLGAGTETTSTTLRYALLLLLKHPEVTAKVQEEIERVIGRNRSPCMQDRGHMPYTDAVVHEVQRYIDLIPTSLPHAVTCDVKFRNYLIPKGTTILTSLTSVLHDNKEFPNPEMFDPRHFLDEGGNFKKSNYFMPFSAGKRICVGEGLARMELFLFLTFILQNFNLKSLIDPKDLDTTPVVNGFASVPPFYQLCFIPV
# [4] = molecular target: human CYP2D6 (Homo sapiens, UniProt P10635)
# Chain of human CYP2D6 (P10635 whole entry): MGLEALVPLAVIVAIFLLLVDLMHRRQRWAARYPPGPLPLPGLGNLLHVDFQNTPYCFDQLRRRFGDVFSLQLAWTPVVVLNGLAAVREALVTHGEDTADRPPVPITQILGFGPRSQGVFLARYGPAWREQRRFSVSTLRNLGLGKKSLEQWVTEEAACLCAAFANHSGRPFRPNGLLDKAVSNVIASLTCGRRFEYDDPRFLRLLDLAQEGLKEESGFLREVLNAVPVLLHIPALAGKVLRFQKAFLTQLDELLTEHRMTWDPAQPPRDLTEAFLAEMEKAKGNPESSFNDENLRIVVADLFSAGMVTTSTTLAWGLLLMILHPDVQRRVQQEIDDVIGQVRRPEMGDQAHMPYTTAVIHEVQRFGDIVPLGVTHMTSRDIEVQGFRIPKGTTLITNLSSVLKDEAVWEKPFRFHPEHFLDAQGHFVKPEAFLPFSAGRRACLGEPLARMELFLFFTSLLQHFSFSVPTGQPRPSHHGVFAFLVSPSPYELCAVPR
# [5] = molecular target: CYP3A4 (Homo sapiens, UniProt P08684)
# Chain of CYP3A4 (P08684 whole entry): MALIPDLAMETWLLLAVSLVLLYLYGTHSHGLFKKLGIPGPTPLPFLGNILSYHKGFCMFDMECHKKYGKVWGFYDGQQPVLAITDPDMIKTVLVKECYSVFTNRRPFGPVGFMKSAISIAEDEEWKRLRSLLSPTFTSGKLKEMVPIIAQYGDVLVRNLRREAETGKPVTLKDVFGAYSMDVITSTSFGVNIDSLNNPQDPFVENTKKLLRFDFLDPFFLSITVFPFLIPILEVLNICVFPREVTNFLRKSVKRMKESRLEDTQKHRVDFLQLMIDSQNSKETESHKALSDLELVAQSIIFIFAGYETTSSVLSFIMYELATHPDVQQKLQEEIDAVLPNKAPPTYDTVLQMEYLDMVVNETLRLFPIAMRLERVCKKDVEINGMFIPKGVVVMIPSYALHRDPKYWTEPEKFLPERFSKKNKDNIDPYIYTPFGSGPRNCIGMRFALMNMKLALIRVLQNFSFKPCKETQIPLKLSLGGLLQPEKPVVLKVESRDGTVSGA
Compound,AC50 [1] [µM],AC50 [2] [µM],CYP2C19 AC50 (half-maximal activity concentration) [3],CYP2D6 AC50 (half-maximal activity concentration) [4],CYP3A4 AC50 (half-maximal activity concentration) [5],AC50 [4] [µM],AC50 [5] [µM],CYP2C9 AC50 (half-maximal activity concentration) [2],AC50 [3] [µM],CYP1A2 AC50 (half-maximal activity concentration) [1]
NS(=O)(=O)c1ccccc1OC(F)(F)F [2-(Trifluoromethoxy)benzenesulfonamide],51.9,62.1,Inconclusive inhibitor,Inactive,Inactive,–,–,–,–,–
Cl.Nc1c2ccccc2nc2ccccc12.O,2.13,28.8,Inconclusive activator,–,Inactive,12.9,–,–,–,–
"O=C(c1ccc(O)cc1)c1ccc(O)cc1O [2,4,4'-Trihydroxybenzophenone]",34.3,3.18,Inactive,–,–,33,19.4,–,–,–
C=Cc1ccc(S(=O)(=O)[O-])cc1.[Na+] [Sodium 4-vinylbenzenesulfonate],63.5,–,Inactive,Inactive,–,–,30.1,Inactive,–,–
CC(=O)c1cc(C(C)(C)C)cc2c1CCC2(C)C,34.4,27.6,Inconclusive,Inactive,–,–,10.5,–,–,–
Cc1ccc([N+](=O)[O-])c(N)c1 [5-Methyl-2-nitroaniline],19.2,49.9,–,Inactive,–,–,13.9,–,39.6,–
O=C(O)C1(C(=O)Nc2ccc(Cl)cc2Cl)CC1 [Cyclanilide],60.6,18.7,Inconclusive inhibitor,–,–,66.8,55.5,–,–,–
CCNS(=O)(=O)c1ccc(C)cc1 [N-Ethyl-4-methylbenzenesulfonamide],41.1,32,–,Inconclusive inhibitor,Inactive,–,–,–,25.9,–
"O=S(=O)(O)c1cc(Cl)c(Cl)cc1Cl [2,4,5-Trichlorobenzenesulfonic acid]",–,33,Inconclusive inhibitor,Inconclusive,–,–,48.3,–,–,Inconclusive inhibitor
Cc1ccc(C(C)OC(=O)[C@]2(C)CC[C@H](C(=O)O)C2(C)C)cc1.OCCNCCO (some centres unmarked) [Tocanfil],–,36.1,Inactive,Inactive,–,–,14.4,–,–,Inactive
"COC(=O)c1ccc(C(=O)OC)c(C(=O)OC)c1 [Trimethyl benzene-1,2,4-tricarboxylate]",7.19,–,–,Inactive,–,–,49.9,Inactive,32.3,–
C=C(C)C(=O)OCC[N+](C)(C)C.[Cl-],10.5,–,Inactive,Inactive,–,–,23.4,Inactive,–,–
CC(C)COC(=O)C=Cc1ccccc1 [Isobutyl 3-phenylacrylate],17,44,–,Inactive,–,–,22.8,–,80,–
CC(=O)OC(C(=O)c1ccccc1)c1ccccc1 (centres unmarked) [Benzoin acetate],46.5,33.2,–,–,–,59.5,34.5,–,10.1,–
"O=C1C=CC(=O)N1c1cccc(N2C(=O)C=CC2=O)c1 [N,N'-1,3-Phenylenedimaleimide]",12.7,5.22,–,–,–,36.3,9.83,–,7.04,–
OCc1cccc(Oc2ccccc2)c1 [3-Phenoxybenzenemethanol],38.5,55.8,–,Inconclusive inhibitor,–,–,64.4,–,24.7,–
CCOC(=O)CC(=O)Cc1cc(F)c(Cl)nc1Cl,65.1,46.3,Inconclusive inhibitor,Inactive,–,–,49.1,–,–,–

Compound,AC50 [1] [µM],AC50 [2] [µM],CYP2C19 AC50 (half-maximal activity concentration) [3],CYP2D6 AC50 (half-maximal activity concentration) [4],CYP3A4 AC50 (half-maximal activity concentration) [5],AC50 [4] [µM],AC50 [5] [µM],CYP2C9 AC50 (half-maximal activity concentration) [2],AC50 [3] [µM],CYP1A2 AC50 (half-maximal activity concentration) [1]
CC(C)(C)C(=O)C=Cc1ccc(Cl)cc1,21.2,54,–,Inactive,–,–,20,–,6.98,–
"O=C1NC(=O)c2cccc3cccc1c23 [1H-Benzo[de]isoquinoline-1,3(2H)-dione]",2.74,33.1,Inconclusive inhibitor,Inactive,Inconclusive activator,–,–,–,–,–
C[C@]12CC[C@H]3[C@@H](CCC4=CC(=O)CC[C@@H]43)[C@@H]1CC[C@@H]2OC(=O)CCC1CCCCC1 [Nandrolone cyclohexylpropionate],26.8,17.4,Inconclusive inhibitor,Inactive,–,–,4.56,–,–,–
O=C(NCc1ncc(C(F)(F)F)cc1Cl)c1c(Cl)cccc1Cl [Fluopicolide],33,4.13,–,–,–,6.57,12.6,–,18.6,–
O=C(Oc1ccccc1)c1cccc(C(=O)Oc2ccccc2)c1 [Diphenyl isophthalate],36.1,9.46,–,–,–,36.5,20.9,–,9.89,–
COC(=O)Cc1cccc2ccccc12 [Methyl 1-naphthaleneacetate],18.8,41.9,–,Inactive,–,–,27.5,–,63.5,–
COCC(=O)N(c1c(C)cccc1C)[C@H](C)C(=O)OC [Metalaxyl-M],47.7,–,Inconclusive inhibitor,Inactive,–,–,47.7,Inactive,–,–
O=C(OCCOCCOCCOC(=O)c1ccccc1)c1ccccc1 [Triethylene glycol dibenzoate],17.8,2.75,–,Inconclusive inhibitor,Inactive,–,–,–,20.8,–
CCS(=O)(=O)c1ccc(OC)c(C(=O)OC)c1 [Methyl 5-(ethylsulfonyl)-o-anisate],–,24.6,Inconclusive inhibitor,Inactive,Inactive,–,–,–,–,Inactive
O=C(Cc1ccccc1)OCc1ccccc1 [Benzyl phenylacetate],12.7,35.8,–,–,–,66.3,11.5,–,13.5,–
O=[N+]([O-])c1ccc(Nc2ccc(Nc3ccccc3)c(S(=O)(=O)[O-])c2)c([N+](=O)[O-])c1.[Na+] [C.I. Acid Orange 3],–,34.3,Inconclusive inhibitor,Inactive,–,–,62.6,–,–,Inactive
Brc1nc2ccccc2s1 [2-Bromobenzothiazole],11.1,–,Inactive,Inactive,–,–,45.5,Inactive,–,–
CC(C)c1ccc2ncccc2c1 [6-(1-Methylethyl)quinoline],46.2,–,Inactive,Inactive,–,–,35,Inactive,–,–
CCC(C)(C)C1CCC(O)CC1 (centres unmarked) [4-(2-Methylbutan-2-yl)cyclohexanol],–,–,Inactive,Inactive,–,–,9.66,Inactive,–,Inconclusive inhibitor
"COc1ccc(C(=O)c2ccc(O)cc2)c(OC)c1 [2,4-Dimethoxy-4'-hydroxy benzophenone]",49.2,0.64,–,Inconclusive inhibitor,–,–,31.7,–,6.52,–
O=C(O)C(F)(F)C(F)(F)C(F)(F)C(F)(F)C(F)(F)C(F)(F)C(F)(F)F [PFOA],–,2.52,Inactive,Inactive,–,–,70.8,–,–,Inactive
CC(C)NC(=O)c1ccccc1N [2-Amino-N-(1-methylethyl)benzamide],51.1,–,–,Inactive,–,–,35.7,Inactive,3.36,–
